Where a name gives a salt, the structure may show the parent alone.
Columns and labels:
[1] = system: patients with Meniere's disease and endolymphatic hydrops associated diseases; assay: Clinical course of vertigo, aural fullness, tinnitus and hearing in clinical cases; format: in vivo, patient
Source text: Therapeutic method of our invention is always performed after general examinations and standard laboratory examinations, such as blood pressure, plasma electrolytes, and urine osmolality. After consideration of body weight, age, sex, and life style, we directed the patients to take adequate water (see below) every day in combination with short-term application with isosorbite®. During the initial stage of the water intake method, recommended volume of water intake for adult male, weighing 60 kg, is calculated as 1.8-2.1 l per day according to the following formula (F 1). […] They seem to be nervous and live under the very strong psychological pressure.
The present invention is explained in detail by mentioning clinical cases.

guinea pig = conditions: after administration of AVP; cited from earlier work
rats = conditions: arginine-vasopressin induced rats; cited from earlier work
[2] = case 3, isosorbide 63 g t.d.s. and difenidol hydrochloride 75 mg t.d.s. together for 6 days, July 28, 2000
[3] = case 3, isosorbide 63 g t.d.s. and difenidol hydrochloride 75 mg t.d.s. together for 14 days, March 2000

CCCCC[C@H](O)/C=C/[C@H]1[C@H](O)CC(=O)[C@@H]1CCCCCCC(=O)O [PGE1, reference compound]
low frequency sensorineural hearing loss of the left ear ([1]; case 5, steroid, VB12 and vasodilator (prostaglandin:PGE1) together): no improvement

OC(CCCN1CCCCC1)(c1ccccc1)c1ccccc1 [difenidol hydrochloride, reference compound]
left hearing [1, 2]: improved to normal range | left hearing [1, 3]: improved

O[C@@H]1CO[C@H]2[C@@H]1OC[C@@H]2O [isosorbide, reference compound]
time until rotatory vertigo was improved ([1]; case 1, attack of Jan. 24, 2003, isosorbide 63 g t.d.s. with water intake 2 lit./day continued): ≤ 3 h | right ear hearing ([1]; case 1, isosorbide 63 g t.d.s. for one week, reexamination Dec. 6, 2002): improved to the normal level | left hearing [1, 2]: improved to normal range | left hearing [1, 3]: improved | right hearing ([1]; case 4, isosorbide 63 g t.d.s. orally for 2 weeks): no improvement

NC(=O)CC[C@@H]1NC(=O)[C@H](Cc2ccccc2)NC(=O)[C@H](Cc2ccc(O)cc2)NC(=O)[C@@H](N)CSSC[C@@H](C(=O)N2CCC[C@H]2C(=O)N[C@@H](CCCN=C(N)N)C(=O)NCC(N)=O)NC(=O)[C@H](CC(N)=O)NC1=O [AVP, arginine vasopressin]
endolymphatic hydrops (guinea pig): endolymphatic hydrops was produced | ABR (auditory brainstem evoked response) threshold (rats): increase in ABR (auditory brainstem evoked response) threshold
